What was measured:
dopamine receptor = details: cited from earlier work; for retention by the striatum compared with [^18 F]haloperidol: region of high dopamine receptor density; for prevention of striatal retention of [^18 F]spiroperidol and [^18 F]benperidol: prior administration of butaclamol enantiomer
dopamine receptors = assay: PETT baboon studies: striatum and cerebellum radioactivity after i.v. [^18 F]-N-methylspiroperidol, with (-)- or (+)-butaclamol pretreatment; details: for effect of butaclamol pretreatment on striatal distribution of [^18 F]-N-methylspiroperidol: 0.5 mg/kg i.v. pretreatment
Text: (§1) A young adult (12 kg) female baboon (Papio anubis) was anesthesized initially with ketamine and subsequently maintained under halothane/nitrous oxide anesthesia for two PETT studies. […] Pett scans were made continually for 4 hrs from the time of radioisotope injection.

[1] = Baboon plasma analyses (total plasma radioactivity clearance and unchanged radioligand); details: baboon, plasma, plasma radioactivity due to unaltered radioligand, baboon plasma, 10 mins after injection
Text: as §1
Blood was sampled from the femoral artery at initial intervals of 5 secs. Aliquots of plasma were counted to determine the total plasma radioactivity of clearance curves.

[2] = Metabolic stability and uptake in rat brain (striatum, cerebellum); type: in vivo, rat (male BNL R strain); details: rat brain

Compound | crossing of the blood brain barrier compared with [^18 F]haloperidol (dopamine receptor; in vivo) | retention by the striatum compared with [^18 F]haloperidol (dopamine receptor) | effect of butaclamol pretreatment on striatal distribution of [^18 F]-N-methylspiroperidol (dopamine receptors) | prevention of striatal retention of [^18 F]spiroperidol and [^18 F]benperidol (dopamine receptor) | also measured
O=C(CCCN1CCC(n2c(=O)[nH]c3ccccc32)CC1)c1ccc([18F])cc1 [[^18 F]benperidol] | to a lesser extent than [^18 F]haloperidol | retained to a greater degree by the striatum | – | – | –
O=C(CCCN1CCC(O)(c2ccc(Cl)cc2)CC1)c1ccc(F)cc1 [haloperidol] | – | – | – | – | brain uptake compared with spiroperidol or benperidol (dopamine receptor; in vivo): higher than spiroperidol or benperidol; egress from the brain (dopamine receptor; in vivo): rapid egress; nonspecific binding (dopamine receptor; in vivo): relatively high nonspecific binding
CC(C)(C)C1(O)CCN2CC3c4ccccc4CCc4cccc(c43)C2C1 (single isomer, unassigned; (-)) [(-)-butaclamol, reference compound] | – | – | normal distribution of radioligand | not | –
CC(C)(C)C1(O)CCN2CC3c4ccccc4CCc4cccc(c43)C2C1 (single isomer, unassigned; (+)) [(+)-butaclamol, reference compound] | – | – | stereospecific blocking of dopamine receptors in the striatum | prevented | –
O=C(CCCN1CCC2(CC1)C(=O)NCN2c1ccccc1)c1ccc([18F])cc1 [[^18 F]spiroperidol] | to a lesser extent than [^18 F]haloperidol | retained to a greater degree by the striatum | – | – | remaining at 10 min [1]: 72%; specifically bound component of radioactivity in the striatum (striatum minus cerebellum) (dopamine receptors; 4 hrs after injection): still increasing at 4 hrs after injection; uptake into the brain (dopamine receptor; baboons): 0.5-1.0 % of the injected dose; clearance from the striatal areas (dopamine receptor; up to 8 hrs. after injection): no clearance; metabolism in the rat brain [2]: very little metabolism
